Data published in patent publication US10662225B2, “Backbone cyclized inhibitory peptides of myeloid differentiation factor 88 (MyD88)” (Yissum Research Development Company of the Hebrew …, priority 2016, dated 2020).
Numbered stars: 1 amine (or outer) side, 2 acyl side, 3 side chain; on linkers, the order of the positions; unused ones are H or OH. Bridge positions count the residues as written; N and C are the ends. Square brackets hold non-standard residues; d marks the D form. Peptide text beside a SMILES is read from it. CO = O=C([*:1])[*:2]; Nlys = NCCCCNCC(=O)O

Key:
[1] = system: MyD88-dependent signaling; test: TNFα production by THP-1 derived macrophages stimulated with PAM3csk; format: cell-based, human; details: THP-1 macrophages, PAM3csk overnight
Description: FIG. 5. Human monocytic THP-1 cells were differentiated to macrophages and were stimulated with PAM3csk overnight in the absence or presence of the cyclic 4-carbon bridge peptide or 6-carbon bridge peptide. TNFα levels in the supernatants were determined by ELISA.
Both cyclic peptides were synthesized with the addition of a tryptophan group to the N-terminus to enable accurate quantification of the molecules.

[2] = biological target: T1, MyD88 dimerization (Homo sapiens, UniProt Q99836); test: Co-immunoprecipitation of Flag-MyD88 with HA-MyD88 in HEK293 cells; format: cell-based; details: HEK293, IL-1 stimulation; 4×4MyDI at 20, 2, 0.2 μM; Myr-4×4MyDI at 0.2 or 2000 nM
T1 construct: constructs encoding HA-tagged full length MyD88 and Flag-tagged full length MyD88; expressed in transfected cells; host or cells: HEK293
Description: FIG. 10. 4×4MyDI blocks MyD88 dimerization. HEK293 cells were transfected with two plasmids, one encoding HA-MyD88 and the other encoding FLAG-MyD88 and after 48 hours the cells were either untreated (cont) or treated with 20 μM of the linear MyDI peptide, the scrambled version of the linear MyDI peptide (SEQ ID NO: 5,), or the 4×4MyDI at 20, 2, or 0.2 μM. After 3 h of treatment, cells were stimulated with recombinant human IL-1 (20 ng/ml) for 30 min and then lysed. Whole cell lysates (WCL) were immunoprecipitated with anti-HA beads (Thermo-Scientific) for 30 min and proteins were eluted with glycine Ph 2.0, neutralized, and loaded on an acrylamide gel for analysis. Proteins were transferred to nitrocellulose and the amount of Flag-MyD88 that co-precipitated with HA-MyD88 was detected by immunoblotting (IB) with anti-Flag antibody.
FIGS. 14A and 14B. […] Proteins were transferred to nitrocellulose and the amount of FLAG-MyD88 that co-precipitated with HA-MyD88 was detected by immunoblotting (IB) with anti-FLAG antibody. […] Percent inhibition of co-immunoprecipitation was calculated by comparing densitometry of bands in the treated lanes to control. […]
TLR and IL-1 receptor signaling proceeds through a multimeric protein signaling complex (the “Myddosome”) that is initiated by MyD88 homodimerization. […] Immunoprecipitated protein was eluted and analyzed by immunoblot using an antibody to Flag. […]

[3] = Metabolic stability in plasma with Brush Border Membrane Vesicles (BBMV); format: in vitro ADME; details: human; over two hours; read-out: decrease of amount in plasma enriched with BBMV
Description: FIGS. 17A and 17B. 4×4MyDI is metabolically stable in comparison to the linear MyDI peptide. 4×4MyDI vs. linear MyDI heptapeptide were incubated independently in either human plasma […] or human plasma supplemented with Brush Border Membrane Vesicles (BBMV, 18B). At various time points the solution was sampled and the amount of remaining compound was determined by quantitative HPLC.
Peptide backbone cyclization confers metabolic stability on peptides that are inherently susceptible to degradation by proteases. […] The stability of the compounds was then tested in plasma enriched with Brush Border Membrane Vesicles (BBMV). This system models the degradative conditions of the intestine.

[4] = system: OCI-LY3 (MyD88 L265P) cells; test: Proliferation of lymphoma cells (Promega CellTiter viability assay); format: cell-based, human; details: 48 h; compared with OCI-LY19 (MyD88 WT)
Description: FIGS. 18A and 18B. 4×4MyDI and Myr-4×4MyDI block proliferation of Ly3 lymphoma cells that carry the L265P oncogenic mutation in MyD88. Cell lines OCI-LY3 (MyD88^L265P) and OCI-LY19 (MyD88^WT) were grown in RPMI supplemented with 10% FCS. Cells were counted and plated at identical concentrations in triplicate wells of 96 well plates and decreasing concentrations of 4×4MyDI […], or Myr-4×4MyDI (19B), was added to the wells. After 48 h cell viability was tested using the Promega CellTiter viability assay according to the manufacturer's instructions. Percent inhibition was calculated as [(1-OD of well with inhibitor/OD of well without inhibitor)*1001. Negative values in A represent enhanced growth in the presence of the inhibitor.
Genomic DNA was prepared from the human lymphoma cell lines OCI-LY3 (MyD88^L265P) and OCI-LY19 (MyD88^WT) to confirm the presence of the activating L265P mutation in the OCI-Ly3 cells (and the WT sequence in the OCI-Ly19 cells). The MyD88 region was amplified using the forward and reverse primers GGGATATGCTGAACTAAGTTGCCAC (SEQ ID NO: 7) and GACGTGTCTGTGAAGTTGGCATCTC (SEQ ID NO: 8), respectively, as described in Xu, L. et al Blood (2013) 121(11): 2051-2058. The PCR product was sequenced to confirm the mutation.
The cell lines were incubated alone or with increasing concentrations of the 4×4MyDI. […]

T1 sequence (Q99836 whole entry): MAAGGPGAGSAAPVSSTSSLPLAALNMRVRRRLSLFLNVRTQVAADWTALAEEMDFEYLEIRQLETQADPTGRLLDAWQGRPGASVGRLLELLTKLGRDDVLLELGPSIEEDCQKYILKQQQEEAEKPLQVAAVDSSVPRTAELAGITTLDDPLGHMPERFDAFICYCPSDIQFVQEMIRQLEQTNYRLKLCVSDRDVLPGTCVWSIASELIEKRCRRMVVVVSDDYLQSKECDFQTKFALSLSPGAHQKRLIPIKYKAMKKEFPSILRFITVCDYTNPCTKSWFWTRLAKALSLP

In the case of CC(C)C[C@@H]1NC(=O)[C@H](C(C)C)NC(=O)[C@H](CC(=O)O)NC(=O)[C@H](CCCNC(=N)N)NC(=O)CN(C(=O)[C@@H](N)Cc2c[nH]c3ccccc23)CCCCNC(=O)NCCCCN(CC(=O)NCC(=O)N[C@H](C(N)=O)[C@@H](C)O)C1=O [4×4MyDI] (H-W[Nlys]RDVL[Nlys]GT-NH2; linker 2-7 via CO; N-terminus assumed), the “inhibition of TNFα production” value [1] was “outperformed the 6-carbon bridge peptide”, the “MyD88 dimerization (Flag-MyD88 co-precipitated with HA-MyD88)” value [2] was “dramatically reduces the dimerization” and the metabolised at 2 h [3] was 40%. The “proliferation of OCI-Ly3 cells” value [4] was “specifically blocked proliferation”.
